Measurements reported in patent US6288110A, “Pharmaceutical compositions comprising disulfiram” (Yeda Research and Development Co Ltd., priority 1998, dated 2001).
“Also recorded” adds a separate entry of the source.

Legend:
[1] = tested on: bovine aortic vascular smooth muscle cells (BSMC); experiment: DNA synthesis (3H-thymidine incorporation) in BSMC; assay type: cell-based
Experimental: Bovine aortic vascular smooth muscle cells (BSMC) were cultured in low glucose DMEM (1 g/liter) supplemented with 10% FCS (HyClone, Logan, Utah) and GPS.
Bovine capillary endothelial cells (BCE) and bovine aortic BSMC were plated in 24-well plates (6000 cells per well) in 500 μl DMEM medium supplemented with 10% Colorado calf serum (CCS) (GIBCO, USA) and GPS. After 24 hours, medium was changed to starvation medium (2% CCS, 0.5% BSA, GPS) for 24 hours. ^3 H-methyl-thymidine (5 μCi/ml) was added for the last 6 hours. DNA synthesis assays were performed as described above, in triplicates. DNA synthesis assays in BALB/MK keratinocytes were performed as previously described (Marikovsky, 1995).-DNA synthesis assays were performed in triplicates.
Disulfiram was prepared in 0.1 mM stock solutions in DMSO. […] Inhibition was calculated as percentage of DNA synthesis of control.
To determine whether disulfiram acts directly on endothelial cells rather than on accessory cells such as macrophages and mast cells that can be responsible for the development of an angiogenic response in vivo, the effect of the drug on the growth of BCE cells was examined in vitro as described in section (c) of "Materials and Methods" above. DNA synthesis in BCE cells was measured in presence of increasing concentrations of disulfiram incubated for 24 hours with the cells. […]

[2] = tested on: BSMC; experiment: Cell rounding, BSMC; assay type: cell-based, bovine; conditions: 5 μM
[3] = tested on: capillary endothelial (BCE) cells; experiment: TUNEL assay for apoptosis, BCE cells; assay type: cell-based, bovine; conditions: 1 μM, 6 hours
Experimental: (§1) Cells were cultured on microscope slides for 48 hours in presence of growth media as described above, until reaching 40-50% confluency. Disulfiram was then added to the cells for 6 hours or for 20 hours in the case of BALB/MK keratinocytes, fixed with 4% paraformaldehyde and washed three times with PBS. Apoptosis was analyzed by the in situ TUNEL staining carried out as described (Wride, 1994). Briefly, microscope slides were incubated for 15 min in 2×SSC buffer at 60° C., washed in DDW and incubated with 20 μg/ml proteinase K (Boehringer Mannheim) for 15 min at room temperature. After a wash with DDW, endogenous peroxidases were inactivated by incubating the slides with 2% H2 O2 in PBST (PBS with 0.05% Tween 20) for 10 min at room temperature. Slides were then incubated in TdT buffer (Boehringer Mannheim) for 5 min at room temperature, and a reaction mixture containing 5×TdT buffer and 1 μl biotin-21-dUTP (Clontech, 1 mM stock) and 8 units of the TdT enzyme (Boehringer Mannheim) in total volume of 50 μl was subsequently added. The reactions were carried out at 37° C. for 1.5 hr in a humid chamber. The slides were washed in 2×SSC, DDW and finally with PBS and covered with 10% skim milk in PBST for 15 min. […]

[4] = tested on: C6 rat glioma cells; experiment: TUNEL assay for apoptosis, C6 rat glioma cells; assay type: cell-based; conditions: 5 μM, 6 hours
Experimental: as §1

[5] = tested on: aldolases; conditions: cited from earlier work
[6] = tested on: metabolism of the carcinogen azomethane; conditions: cited from earlier work
[7] = tested on: ifosfamide- and cyclophosphamide-induced urotoxicity; conditions: administered simultaneously with ifosfamide or cyclophosphamide, mice; cited from earlier work
[8] = tested on: normal mice; conditions: cited from earlier work

Compound: CCN(CC)C(=S)SSC(=S)N(CC)CC [disulfiram, Bis(diethylthiocarbamoyl) disulfide]
- maximal inhibitory activity (DNA synthesis) ([1]; 0.5-1 μM disulfiram): 80%
- inhibition at 1 µM ([1]; Bos taurus, 1 μM, 4 hours of incubation): 50%
- cell rounding [2]: did not change their shape to the rounded form
- apoptosis by TUNEL method [3]: labeled; also recorded: induced into apoptosis
- apoptosis by TUNEL method [4]: not labeled; also recorded: did not induce
- inhibition of aldolases [5]: inhibit
- inhibition of azomethane metabolism [6]: inhibited the metabolism
- protection against urotoxicity [7]: protect mice
- toxic dose [8]: 6-10 mg/mouse/day
